Tested on: edema of both feet of SD-rats
Test: Edema suppression in rheumatic arthritis model (heat-killed Mycobacterium injected into right sole)
Type: in vivo
Settings: 4 mg/day; about 20 days after injection
Experimental: At about 20 days after injection of 0.6 mg/kg heat-killed 5. Mycobacterium histolyticm to the right sole of the feet of SD-rats, the degree of inhibition against inflammation was investigated by measuring the size of edema of both feet. The rats were divided into 7 groups and examined; feed group (group A) as a control group, not being caused edema, group B which was fed with 4 mg/day of predisolone as edema suppression agents, group C which was fed with 160 mg/day of ordinary platycodon extract, group D which was fed with 20 mg/day of 14 kinds of herbal medicine extract, group E which was fed with 160 mg/day of the old platycodon extract, group F which was fed with 40 mg/day of herbal medicine extract and 160 mg/day of the old platycodon extract. Each group was assigned to have 6 SD-rats.

C[C@]12C=CC(=O)C=C1CC[C@@H]1[C@@H]2[C@@H](O)C[C@@]2(C)[C@H]1CC[C@]2(O)C(=O)CO [predisolone]
Edema suppression activity in the left foot: 83.8%
Edema suppression activity in the right foot: 84.5%
